Measured values taken from patent publication US11141462B2, “Method for the treatment or prevention of osteoarthritis” (Chondropeptix B.V., priority 2016, dated 2021).

Tested on: OA articular chondrocytes
Test: OA chondrocyte phenotype gene expression screening of BMP-7 peptides (RT-qPCR)
Type: cell-based, human
Design: key to COX-2 / COL2A1 / SOX9: [+] denotes a significantly increased expression of chondrogenic marker genes SOX9 and COL2A1, or a significantly decreased expression of OA phenotypic marker COX-2 in OA articular chondrocytes, in comparison to untreated OA articular chondrocytes; key to IL-6 / ADAMTS5 / COL10A / BAPX1/NKX3.2 / ALP / RUNX2: —: [-] denotes the absence of a significant effect or a significantly decreased expression of chondrogenic marker genes BAPX1/NKX3.2, or a significantly increased expression of OA phenotypic markers IL-6, ADAMTS5, COL10A, ALP and RUNX2 in OA articular chondrocytes, in comparison to untreated OA articular chondrocytes
Details: for suppression of the OA chondrocyte phenotype: independent of the tested concentration (1000, 100, 10 and 1 nM were tested); for COL2A1 / COX-2 / SOX9: Table 5
Description: (§1) FIG. 2: The action of 20-mer peptides (10 nM) of SEQ ID NO: 2-17 (peptides with 1 or 2 amino acids intervals (18-19 amino acid overlap)) and a random peptide with a sequence according to SEQ ID NO: 49 on the expression of ADAMTS5 was determined on a validated pool of passage 2 OA human articular chondrocytes (n=18) and compared to full-length recombinant BMP-7 (1 nM). Samples were harvested after 24 hours and analyzed for indicated genes by RT-qPCR (normalized for 28S rRNA expression and relative to control conditions (no peptide exposure)). In the graphs, numbers on the x-axis represent individual peptides according to their SEQ ID NO's, error bars represent mean±SEM, statistical differences were calculated (one-way ANOVA with bonferroni correction) to control condition. *=p<0.05 lower than control condition for ADAMTS5. Random peptide is a peptide according to SEQ ID NO: 49.
as §1, with “3:” for “2:”, “ALP” for “ADAMTS5”, “ALP.” for “ADAMTS5.”
as §1, with “4:” for “2:”, “BAPX1/NKX3.2” for “ADAMTS5”, “BAPX1/NKX3.2.” for “ADAMTS5.”
as §1, with “5:” for “2:”, “COL10A1” for “ADAMTS5”, “COL10A1.” for “ADAMTS5.”
FIG. 6: The action of 20-mer peptides (10 nM) of SEQ ID NO: 2-17 (peptides with 1 or 2 amino acids intervals (18-19 amino acid overlap)) and a random peptide with a sequence according to SEQ ID NO: 49 on the expression of IL-6 was determined on a validated pool of passage 2 OA human articular chondrocytes (n=18) and compared to full-length recombinant BMP-7 (1 nM). […]

[1] = Table 1, gene expression in OA articular chondrocytes vs untreated
[2] = Table 2 (FIG. 2: 10 nM, 24 hours, RT-qPCR, 28S rRNA normalized), vs untreated OA articular chondrocytes
[3] = Table 2 (FIG. 3: 10 nM, 24 hours, RT-qPCR, 28S rRNA normalized), vs untreated OA articular chondrocytes
[4] = Table 2 (FIG. 4: 10 nM, 24 hours, RT-qPCR, 28S rRNA normalized), vs untreated OA articular chondrocytes
[5] = Table 2 (FIG. 5: 10 nM, 24 hours, RT-qPCR, 28S rRNA normalized), vs untreated OA articular chondrocytes
[6] = Table 2 (FIG. 6: 10 nM, 24 hours, RT-qPCR, 28S rRNA normalized), vs untreated OA articular chondrocytes
[7] = Table 2 (FIG. 7: 10 nM, 24 hours, RT-qPCR, 28S rRNA normalized), vs untreated OA articular chondrocytes
[8] = gene expression in OA articular chondrocytes vs untreated

Substance: LNAISVLYFDDSSNVILKKY (listed as Homo sapiens) [SEQ ID NO: 11]
- suppression of the OA chondrocyte phenotype: efficiently suppressed the OA chondrocyte phenotype

Substance: 20 (KTPKNQEALRMANVAENSSSSSDQRQACKK; listed as Homo sapiens) [compound 20]
- ADAMTS5 [1]: —
- ALP [1]: —
- BAPX1/NKX3.2 [1]: —
- COL10A [1]: —
- IL-6 [1]: —
- RUNX2 [1]: —

Substance: ETVPKPSSAPTQLNAISVLY (listed as Homo sapiens) [SEQ ID NO: 4]
- activity in the assays as employed herein (table 2) (peptides with additional amino acid N-terminal of position 100): lost its activity

Substance: 17 (SSNVILKKYRNMVVRASGSH; listed as Homo sapiens) [compound 17]
- ADAMTS5 [2]: +
- ALP [3]: +
- BAPX1/NKX3.2 [4]: +
- COL10A [5]: +
- IL-6 [6]: +
- RUNX2 [7]: +
- COL2A1 [8]: +
- COX-2 [8]: +
- SOX9 [8]: +

Substance: 12 (AISVLYFDDSSNVILKKYRN; listed as Homo sapiens) [compound 12]
- ADAMTS5 [2]: +
- ALP [3]: +
- BAPX1/NKX3.2 [4]: +
- COL10A [5]: +
- IL-6 [6]: +
- RUNX2 [7]: +
- COL2A1 [8]: +
- COX-2 [8]: +
- SOX9 [8]: +

Substance: 11 (LNAISVLYFDDSSNVILKKY; listed as Homo sapiens) [compound 11]
- ADAMTS5 [2]: +
- ALP [3]: +
- BAPX1/NKX3.2 [4]: +
- COL10A [5]: +
- IL-6 [6]: +
- RUNX2 [7]: +
- COL2A1 [8]: +
- COX-2 [8]: +
- SOX9 [8]: +

Substance: SSAPTQLNAISVLYFDDSSN (listed as Homo sapiens) [SEQ ID NO: 8]
- suppression of the OA chondrocyte phenotype: efficiently suppressed the OA chondrocyte phenotype

Substance: FDDSSNVILKKYRNMVVRAS (listed as Homo sapiens) [SEQ ID NO: 15]
- suppression of the OA chondrocyte phenotype: efficiently suppressed the OA chondrocyte phenotype

Substance: 26 (SSNVILKKYRNMVVRACGCH; listed as Homo sapiens) [compound 26]
- ADAMTS5 [1]: —
- ALP [1]: —
- BAPX1/NKX3.2 [1]: —
- COL10A [1]: —
- IL-6 [1]: —
- RUNX2 [1]: —

Substance: 3 (NPETVPKPSSAPTQLNAISV; listed as Homo sapiens) [compound 3]
- ADAMTS5 [2]: —
- ALP [3]: —
- BAPX1/NKX3.2 [4]: —
- COL10A [5]: —
- IL-6 [6]: —
- RUNX2 [7]: —

Substance: 9 (APTQLNAISVLYFDDSSNVI; listed as Homo sapiens) [compound 9]
- ADAMTS5 [2]: +
- ALP [3]: +
- BAPX1/NKX3.2 [4]: +
- COL10A [5]: -
- IL-6 [6]: +
- RUNX2 [7]: +
- COL2A1 [8]: +
- COX-2 [8]: +
- SOX9 [8]: +

Substance: 23 (CEGECAFPLNSYMNATNHAI; listed as Homo sapiens) [compound 23]
- ADAMTS5 [1]: —
- ALP [1]: —
- BAPX1/NKX3.2 [1]: —
- COL10A [1]: —
- IL-6 [1]: —
- RUNX2 [1]: —

Substance: 22 (DLGWQDWIIAPEGYAAYYCE; listed as Homo sapiens) [compound 22]
- ADAMTS5 [1]: —
- ALP [1]: —
- BAPX1/NKX3.2 [1]: —
- COL10A [1]: —
- IL-6 [1]: —
- RUNX2 [1]: —

Substance: 2 (FINPETVPKPSSAPTQLNAI; listed as Homo sapiens) [compound 2]
- ADAMTS5 [2]: —
- ALP [3]: —
- BAPX1/NKX3.2 [4]: —
- COL10A [5]: —
- IL-6 [6]: —
- RUNX2 [7]: —

Substance: 7 (KPSSAPTQLNAISVLYFDDS; listed as Homo sapiens) [compound 7]
- ADAMTS5 [2]: +
- ALP [3]: +
- BAPX1/NKX3.2 [4]: +
- COL10A [5]: +
- IL-6 [6]: +
- RUNX2 [7]: +
- COL2A1 [8]: +
- COX-2 [8]: +
- SOX9 [8]: +

Substance: PKPSSAPTQLNAISVLYFDD (listed as Homo sapiens) [SEQ ID NO: 6]
- suppression of the OA chondrocyte phenotype: efficiently suppressed the OA chondrocyte phenotype

Substance: 21 (SSDQRQACKKHELYVSFRDL; listed as Homo sapiens) [compound 21]
- ADAMTS5 [1]: —
- ALP [1]: —
- BAPX1/NKX3.2 [1]: —
- COL10A [1]: —
- IL-6 [1]: —
- RUNX2 [1]: —

Substance: 16 (DSSNVILKKYRNMVVRASGS; listed as Homo sapiens) [compound 16]
- ADAMTS5 [2]: +
- ALP [3]: +
- BAPX1/NKX3.2 [4]: +
- COL10A [5]: +
- IL-6 [6]: +
- RUNX2 [7]: —
- COL2A1 [8]: +
- COX-2 [8]: +
- SOX9 [8]: +

Substance: 24 (AIVQTLVHFINPETVPKPCC; listed as Homo sapiens) [compound 24]
- ADAMTS5 [1]: —
- ALP [1]: —
- BAPX1/NKX3.2 [1]: —
- COL10A [1]: —
- IL-6 [1]: —
- RUNX2 [1]: —

Substance: 1 (FINPETVPKPSSAPTQLNAISVLYFDDSSNVILKKYRNMVVRASGSH; listed as Homo sapiens) [compound 1]
- ADAMTS5 [2]: —
- ALP [3]: —
- BAPX1/NKX3.2 [4]: —
- COL10A [5]: —
- IL-6 [6]: —
- RUNX2 [7]: —

Substance: APTQLNAISVLYFDDSSNVI (listed as Homo sapiens) [SEQ ID NO: 9]
- suppression of the OA chondrocyte phenotype: efficiently suppressed the OA chondrocyte phenotype

Substance: 14 (LYFDDSSNVILKKYRNMVVR; listed as Homo sapiens) [compound 14]
- ADAMTS5 [2]: +
- ALP [3]: +
- BAPX1/NKX3.2 [4]: +
- COL10A [5]: +
- IL-6 [6]: +
- RUNX2 [7]: —
- COL2A1 [8]: +
- COX-2 [8]: +
- SOX9 [8]: +

Substance: KPSSAPTQLNAISVLYFDDS (listed as Homo sapiens) [SEQ ID NO: 7]
- suppression of the OA chondrocyte phenotype: efficiently suppressed the OA chondrocyte phenotype

Substance: 19 (STGSKQRSQNRSKTPKNQEA; listed as Homo sapiens) [compound 19]
- ADAMTS5 [1]: —
- ALP [1]: —
- BAPX1/NKX3.2 [1]: —
- COL10A [1]: —
- IL-6 [1]: —
- RUNX2 [1]: —
